The values that follow come from patent US20250353891A1 (MEDIMMUNE LIMITED, priority 2022, published 2025).

“And” between values parts separate entries of the source, which are not always exact repeats. Equal entries are not always repeated. Starred links: 1 amine or outer side, 2 acyl side, 3 side chain; linkers in the order of their positions; H or OH if unused. Non-standard residues stand in square brackets, D forms with d. Residues, ends and D or L forms follow the SMILES beside them. Groups on a side chain read outwards from the residue. *: point of attachment. C20 diacid = O=C(O)CCCCCCCCCCCCCCCCCCC(=O)*; C18 diacid = O=C(O)CCCCCCCCCCCCCCCCC(=O)*; γGlu = O=C(O)[C@H](CCC(=O)[*:2])N[*:1]; αMeF = C[C@](N)(Cc1ccccc1)C(=O)O; AEEA = NCCOCCOCC(=O)O; Aib = CC(C)(N)C(=O)O

For one series, the system named is wildtype (WT) mice. The experiment in a line: Glucose change in wildtype mice. The settings on record: s.c., 120 min vs 0 min, somatostatin pretreatment (octreotide) 30 min prior to cpd. The class given is in vivo, mouse. Summed up:
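Wildtype mice aged 8-14 weeks, fasted 2 h, sometimes pre-treated with octreotide 10 mg/kg 30 min before peptide injection. Blood glucose by glucometer at -30, 0, 30, 60, 120, 180, 240 and 360 min; n=4-8/group, mice reused up to 3 times with ≥1 week wash-out.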

Series [1] deals with GLP-1R knockout (KO) mice. The experiment in a line: Glucose change in GLP-1R knockout mice. The class given is in vivo, mouse. The conditions noted are these: GLP-1R KO mice, s.c., 120 min vs 0 min, somatostatin pretreatment (octreotide) 30 min prior to cpd. Put shortly: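 GLP-1R knockout mice (n=4-8/group, sorted by body weight) were fasted 2 h, and in some studies pretreated with octreotide 10 mg/kg 30 min before peptide injection. Mice were reused up to 3 times with at least 1-week wash-out.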

Series [2] in a line: Mouse acute food intake study. The conditions noted are these: male C57Bl/6 mice, s.c., cumulative food intake at 24 hr vs vehicle. The class given is in vivo. Put shortly: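 Peptide or vehicle went subcutaneously (5 mL/kg) to 6-8 h-fasted male C57Bl/6 mice shortly before the dark phase, with groups balanced on body weight and 24-hour intake. Cumulative food consumption was derived from 48 h of automated BioDaq monitoring with free food and water access.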

Series [3] in a line: in vivo. The settings on record: male, cynomolgus monkey, 10 nmol/kg. The text has this:
(§1) Selected test peptides (n=8) were profiled for pharmacokinetic (PK) properties in the mouse after single intravenous (i.v.) or subcutaneous (s.c.) dose. A subset (n=4) meeting the acceptance criteria was subsequently profiled in the dog (single i.v. dose) and non-human primate (single i.v. and s.c. dose). […] Low-binding plasticware containers were used during preparation and sample handling to avoid non-specific binding.
Non-human primate: PK was studied in non-naïve male cynomolgus monkeys. After dosing, PK samples were collected from the femoral vein. Blood of each sample was transferred into plastic micro centrifuge tubes containing EDTA-K2, inverted several times for proper mixing of contents and then placed on wet ice. The blood samples were centrifuged under refrigerated (2° C. to 8° C.) conditions within 30 minutes following sample collection to obtain plasma and stored at −60° C. to −90° C.° C. prior to analysis.
(§2) Samples analysis: Samples were analyzed by LC-MS/MS. Calibration standards were injected at the beginning and end of each batch and the determined concentration for each prepared standard was used to construct a calibration curve. Plasma and dose aliquot sample concentrations were determined from the plasma calibration curve.
(§3) Data analysis: Plasma concentration data was analyzed by non-compartmental analysis (NCA) using Phoenix Winnonlin v. 8.3.3.33. Linear trapezoidal rule was used for increasing values and log trapezoidal rule was used for decreasing values, applying uniform weighting for lambda_z calculations. Subcutaneous bioavailability was calculated as the ratio AUC(s.c.)0-inf/AUC(i.v.)0-inf. Reported values (Table 18) represent the mean of the individual estimates.

A short description of series [4]: in vivo. The conditions noted are these: 10 nmol/kg; for half-life: iv.
Text: as §1
After dosing, PK samples were collected from the dorsal metatarsal vein. Blood of each sample was transferred into plastic micro centrifuge tubes containing EDTA-K2, inverted several times for proper mixing of contents and then placed on wet ice. The blood samples were centrifuged at 4° C. to obtain plasma and stored at −75° C. prior to analysis.
as §2, §3

A short description of series [5]: in vivo. The conditions noted are these: male, Beagle, dog, iv, 10 nmol/kg.
Text: as §1
Blood of each sample was transferred into plastic micro centrifuge tubes containing EDTA-K2, inverted several times for proper mixing of contents and then placed on wet ice.
as §2, §3

Series [6] has as its target human GLP-1 receptor (hGLP-1R) (Homo sapiens, UniProt P43220). The series can be described thus: cAMP production (HTRF) in CHO cells expressing hGLP-1R. It counts as cell-based. Further details: expressed in transfected cells. Summed up: (§4)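 Read-out: HTRF cAMP (anti-cAMP cryptate donor, cAMP-d2 acceptor in conjugate/lysis buffer), converted to % Delta F and fitted by 4-parameter logistic for EC50. Cell densities were 1×10^5 cells/mL (hGLP-1R) or 2×10^5 cells/mL (hGCGR). Stimulation lasted 30 min at room temperature.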

Series [7] addresses human glucagon receptor (hGCGR) (Homo sapiens, UniProt P47871). The experiment in a line: cAMP production (HTRF) in CHO cells expressing hGCGR. It counts as cell-based. Further details: expressed in transfected cells. The conditions noted are these: Table 7, peptides modified at position 20; cAMP in CHO hGCGR cells; geometric mean; read-out: hGluc-R EC50. Summed up: as §4
The nature of series [8]: Proteolytic resistance to FasSSIF/Pancreatin. The class given is in vitro ADME. The conditions noted are these: simulated intestinal fluid. Summed up: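 Peptide (1.0 mg) in pre-warmed FasSSIF, proteolysis started with fresh FasSSIF/USP Pancreatin and held at 37 °C. Aliquots at 0, 5, 10, 15, 30 min quenched in 10% TFA; remaining intact peptide estimated by RP-HPLC peak area, UV 210 nm.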

A short description of series [9]: Proteolytic resistance to FasSSGF containing porcine pancreatic pepsin. It counts as in vitro ADME. The settings on record: pig, simulated gastric fluid. Summed up: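 Peptide (250 μM stock in FasSSGF) mixed 1:1 with porcine pepsin stock (0.5 mg/mL in FasSSGF) and held at 37° C; samples at 0, 5, 10, 15 and 30 min quenched in ammonium bicarbonate, pH 8. Intact peptide remaining estimated by RP-HPLC peak area, UV 210 nm.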

For another series, the target named is T1, recombinant Neprilysin (Homo sapiens, UniProt P08473).
T1 construct: purchased R&D Systems 1182-ZNC-010
T1 sequence (P08473 52-750 limits assumed): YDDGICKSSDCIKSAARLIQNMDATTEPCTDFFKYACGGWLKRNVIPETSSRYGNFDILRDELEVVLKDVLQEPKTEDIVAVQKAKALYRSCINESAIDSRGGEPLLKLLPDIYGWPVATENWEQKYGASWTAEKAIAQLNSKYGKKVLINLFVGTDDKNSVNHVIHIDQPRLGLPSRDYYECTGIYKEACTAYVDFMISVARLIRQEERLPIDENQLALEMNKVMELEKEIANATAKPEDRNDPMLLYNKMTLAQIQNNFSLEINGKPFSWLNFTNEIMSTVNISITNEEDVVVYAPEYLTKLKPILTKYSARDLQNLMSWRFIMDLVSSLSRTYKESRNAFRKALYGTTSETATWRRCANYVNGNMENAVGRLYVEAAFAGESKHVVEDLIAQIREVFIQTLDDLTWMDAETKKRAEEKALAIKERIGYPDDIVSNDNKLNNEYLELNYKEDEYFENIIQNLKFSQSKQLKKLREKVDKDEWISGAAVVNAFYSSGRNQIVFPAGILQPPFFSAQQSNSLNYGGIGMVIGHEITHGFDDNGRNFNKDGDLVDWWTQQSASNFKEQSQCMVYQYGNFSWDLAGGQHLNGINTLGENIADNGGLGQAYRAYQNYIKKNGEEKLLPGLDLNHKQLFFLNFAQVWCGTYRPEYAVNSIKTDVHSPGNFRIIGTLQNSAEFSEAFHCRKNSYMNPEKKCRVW
The series can be described thus: Proteolytic resistance to neprilysin. It counts as in vitro ADME. The settings on record: pH 8.3. As for the experimental part:
10.0 μg (˜10 units) recombinant Neprilysin (R&D Systems: 1182-ZNC-010) was reconstituted to 100 μL (100 μg/mL, ˜100 units/mL) in assay buffer (50 mM Tris, 50 mM NaCl, 50 mM NaHCO3, adjusted to pH 8.3) to give the enzyme stock solution. Peptide stock solutions were prepared to a concentration of ˜250 μM (˜1.0 mg/mL of 4 kDa peptide) in assay buffer. 100 μL (10 μg, ˜10 units) of neprilysin stock solution was added to 100 μL of peptide stock solution (1.0 mg/mL, ˜100 μg of peptide) and the mixture was co-incubated in a temperature regulated incubator at 37° C. for the duration of the experiment. 25 μL aliquots (˜ 12.5 μg initial peptide) of the peptide-enzyme mixture were periodically withdrawn (t=0, 30 mins, 1 h, 2 h, 4 h and 24 h) and quenched immediately by addition to an equal volume ([…]) of 10% TFA (v/v) in 1:1 water/acetonitrile to arrest proteolytic activity. The quenched aliquot centrifuged at 7800 rpm, and 30 μL of the supernatant was analyzed by analytical RP-HPLC as follows: Analytical RP-HPLC method: Agilent Polaris C8-A column (4.6×100 mm, 3 micron) eluted with a linear binary gradient of 10-90% MeCN (0.1% TFA v/v) in water (0.1% TFA v/v) over either 10 or 15 mins at 1.5 mL min-1 at 40° C. with detection by UV absorption at 210 nm. Manual integration (AUC) allowed estimation of remaining intact peptide over the time course of the experiment.

Chain of human GLP-1 receptor (hGLP-1R) (P43220 24-463): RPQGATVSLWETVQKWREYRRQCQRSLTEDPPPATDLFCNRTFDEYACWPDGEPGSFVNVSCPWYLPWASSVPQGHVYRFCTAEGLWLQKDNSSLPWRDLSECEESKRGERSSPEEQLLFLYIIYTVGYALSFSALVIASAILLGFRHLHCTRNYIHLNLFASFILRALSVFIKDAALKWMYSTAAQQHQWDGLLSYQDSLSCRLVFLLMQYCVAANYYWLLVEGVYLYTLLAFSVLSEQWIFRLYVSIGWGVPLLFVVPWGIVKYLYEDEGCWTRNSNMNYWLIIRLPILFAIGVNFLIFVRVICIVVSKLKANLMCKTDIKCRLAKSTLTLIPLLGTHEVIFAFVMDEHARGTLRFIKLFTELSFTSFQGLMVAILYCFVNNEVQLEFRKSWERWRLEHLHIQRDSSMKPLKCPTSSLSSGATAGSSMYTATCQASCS
Chain of human glucagon receptor (hGCGR) (P47871 26-477): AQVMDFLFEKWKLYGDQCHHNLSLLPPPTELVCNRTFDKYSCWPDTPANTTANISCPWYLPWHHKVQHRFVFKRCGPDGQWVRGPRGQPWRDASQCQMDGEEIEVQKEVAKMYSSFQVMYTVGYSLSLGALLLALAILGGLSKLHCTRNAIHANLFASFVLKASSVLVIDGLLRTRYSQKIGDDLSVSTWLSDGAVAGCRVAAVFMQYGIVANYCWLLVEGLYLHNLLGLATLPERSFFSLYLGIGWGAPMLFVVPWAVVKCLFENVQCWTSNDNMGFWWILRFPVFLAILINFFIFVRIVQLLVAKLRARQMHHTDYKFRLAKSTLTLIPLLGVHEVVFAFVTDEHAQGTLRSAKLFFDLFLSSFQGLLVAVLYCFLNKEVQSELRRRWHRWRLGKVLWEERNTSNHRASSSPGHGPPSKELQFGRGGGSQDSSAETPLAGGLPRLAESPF

With `CC[C@H](C)[C@H](NC(=O)C(C)(C)NC(=O)[C@H](CCC(N)=O)NC(=O)[C@@H](NC(=O)[C@](C)(Cc1ccccc1)NC(=O)[C@H](CC(=O)O)NC(=O)[C@H](CCCCNC(=O)COCCOCCNC(=O)COCCOCCNC(=O)CC[C@H](NC(=O)CCCCCCCCCCCCCCCCC(=O)O)C(=O)O)NC(=O)[C@H](C)NC(=O)[C@H](C)NC(=O)[C@H](CCCNC(=N)N)NC(=O)[C@H](CO)NC(=O)[C@H](CC(=O)O)NC(=O)[C@H](CC(C)C)NC(=O)[C@](C)(Cc1ccccc1)NC(=O)[C@H](CCCCN)NC(=O)[C@H](CO)NC(=O)[C@@H](NC(=O)[C@H](CC(=O)O)NC(=O)[C@H](CO)NC(=O)[C@@H](NC(=O)[C@](C)(Cc1ccccc1)NC(=O)[C@H](CO)NC(=O)CNC(=O)[C@H](Cc1c[nH]cn1)NC(=O)C(C)(C)NC(=O)[C@@H](N)Cc1c[nH]cn1)[C@@H](C)O)C(C)C)C(C)C)C(=O)N[C@@H](C)C(=O)N[C@@H](CC(N)=O)C(=O)N[C@H](C(N)=O)[C@@H](C)O` [Peptide 224, H-Aib-H-G-S-αMePhe-T-S-D-V—S-K-αMePhe-L-D-S-R-A-A-K (E-(O2Oc)-(O2Oc)-γE-C18diacid) 20-D-αMePhe-V-Q-Aib-I-A-N-T-amide] (H-H[Aib]HGS[αMeF]TSDVSK[αMeF]LDSRAAK([AEEA-AEEA-γGlu-C18 diacid])D[αMeF]VQ[Aib]IANT-NH2; N-terminus assumed), the “WT % glucose change 120 min” value is reported as −46.3% in the series on wildtype (WT) mice (3 nmol/kg) and −40.0% in the series on wildtype (WT) mice (10 nmol/kg). Further, the “GLP-1R KO % glucose change 120 min” value in series [1] (3 nmol/kg) was found to be 100.3%; in series [1] (10 nmol/kg), 132.3%. The “24 hr % Vehicle Food Intake” value in series [2] (dose 1 nmol/kg) was 91.3%; in [2] (dose 3 nmol/kg) it was 76.6%; in series [2] (dose 10 nmol/kg) it was 66.5% and 72.5%. Besides, the bioavailability in “in vivo [3]” was 95%; in “in vivo [4]” (male, C57BL/6, mouse), 109%. The half-life was 100 h in “in vivo [3]” (iv); 9.5 h in “in vivo [4]” (male, C57BL/6, mouse); 75 h in the series “in vivo [5]”. For the same compound, the half-maximal effective concentration (EC50) in series [6] (Table 7, peptides modified at position 20, cAMP in CHO hGLP-1R cells, geometric mean, read-out: hGLP-1R EC50) turned out to be 32.1 pM; in series [7], 28.7 pM. Moreover, the “% Relative Potency Ratio” value in series [6] (Table 7, % GLP-1R activity relative to GLP-1 / % GlucR activity relative to glucagon) is given as 1.8.
In the case of `CC[C@H](C)[C@H](NC(=O)C(C)(C)NC(=O)[C@H](CCC(N)=O)NC(=O)[C@@H](NC(=O)[C@](C)(Cc1ccccc1)NC(=O)[C@H](CC(=O)O)NC(=O)[C@H](CCCCNC(=O)COCCOCCNC(=O)COCCOCCNC(=O)CC[C@H](NC(=O)CC[C@H](NC(=O)CCCCCCCCCCCCCCCCCCC(=O)O)C(=O)O)C(=O)O)NC(=O)[C@H](C)NC(=O)[C@H](C)NC(=O)[C@H](CCCNC(=N)N)NC(=O)[C@H](CO)NC(=O)[C@H](CC(=O)O)NC(=O)[C@H](CC(C)C)NC(=O)[C@](C)(Cc1ccccc1)NC(=O)[C@H](CCCCN)NC(=O)[C@H](CO)NC(=O)[C@@H](NC(=O)[C@H](CC(=O)O)NC(=O)[C@H](CO)NC(=O)[C@@H](NC(=O)[C@](C)(Cc1ccccc1)NC(=O)[C@H](CO)NC(=O)CNC(=O)[C@H](Cc1c[nH]cn1)NC(=O)C(C)(C)NC(=O)[C@@H](N)Cc1c[nH]cn1)[C@@H](C)O)C(C)C)C(C)C)C(=O)N[C@@H](C)C(=O)N[C@@H](CC(N)=O)C(=O)N[C@H](C(N)=O)[C@@H](C)O` [Peptide 229, H-Aib-H-G-S-αMePhe-T-S-D-V—S-K-αMePhe-L-D-S-R-A-A-K (E-(O2Oc)-(O2Oc)-γE-γE-C20diacid) 20-D-αMePhe-V-Q-Aib-I-A-N-T-amide] (H-H[Aib]HGS[αMeF]TSDVSK[αMeF]LDSRAAK([AEEA-AEEA-γGlu-γGlu-C20 diacid])D[αMeF]VQ[Aib]IANT-NH2; N-terminus assumed), in [8], the amount remaining at 5 min, 3.3 mg/mL was 60%; the fraction remaining at 10 min, 3.3 mg/mL is 46%; the amount remaining at 0.25 h, 3.3 mg/mL was 33%; the amount remaining at 0.5 h, 3.3 mg/mL is 26%. In the series “in vivo [4]” (mouse), the bioavailability worked out at 86% and the half-life was 19 h. In series [9], this compound gave a fraction remaining at 5 min, 125 µM of 100%; a fraction remaining at 10 min, 125 µM of 97%; a share remaining at 0.25 h, 125 µM of 91%; a share remaining at 0.5 h, 125 µM of 79%. On recombinant Neprilysin (isolated enzyme neprilysin), the amount remaining at 0.5 h stood at 100%, the fraction remaining at 2 h was determined as 100%, the share remaining at 4 h was found to be 100% and the amount remaining at 24 h came out at 100%. Moreover, the “% intact peptide over time” value at recombinant Neprilysin turned out to be 100%.

One may read the half-life as how long it takes for the measured level to halve. Read a high half-life as slow loss. What is called EC50 is the midpoint of the concentration-response curve. One may read the share remaining as the share of the starting amount still present when the sample was taken.
